Laboratory results as given in ChEMBL document CHEMBL4433199, “First-in-class allosteric inhibitors of bacterial IMPDHs” (Eur J Med Chem, 2019).
Calls of active or inactive are those of the source. The calls are words filed in the database; no cut-off is given here.

Tests used:
[1] = target: T1, Inosine-5'-monophosphate dehydrogenase (Pseudomonas aeruginosa (strain ATCC 15692 / DSM 22644 / CIP 104116 / JCM14847 / LMG 12228 / 1C / PRS 101 / PAO1)) (UniProt Q9HXM5); experiment: Inhibition of Pseudomonas aeruginosa IMPDH at 55.6 uM using IMP as substrate in the presence of NAD+ incubated for 70 secs relative to control
T1 sequence (whole entry): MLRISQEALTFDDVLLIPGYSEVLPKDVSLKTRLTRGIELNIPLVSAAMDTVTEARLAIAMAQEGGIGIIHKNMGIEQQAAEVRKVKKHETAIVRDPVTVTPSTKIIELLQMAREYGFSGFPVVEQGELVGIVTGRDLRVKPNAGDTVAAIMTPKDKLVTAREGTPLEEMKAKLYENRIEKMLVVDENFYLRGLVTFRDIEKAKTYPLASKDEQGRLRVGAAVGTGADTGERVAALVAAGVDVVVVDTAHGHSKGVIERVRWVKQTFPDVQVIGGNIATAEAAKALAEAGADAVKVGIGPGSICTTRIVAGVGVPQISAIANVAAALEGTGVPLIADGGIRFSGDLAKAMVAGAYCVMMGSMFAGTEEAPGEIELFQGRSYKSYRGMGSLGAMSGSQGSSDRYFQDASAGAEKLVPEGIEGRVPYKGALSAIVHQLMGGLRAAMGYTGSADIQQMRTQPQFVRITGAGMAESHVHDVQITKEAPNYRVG

[2] = target: T1, Inosine-5'-monophosphate dehydrogenase (Pseudomonas aeruginosa (strain ATCC 15692 / DSM 22644 / CIP 104116 / JCM14847 / LMG 12228 / 1C / PRS 101 / PAO1)); experiment: Inhibition of Pseudomonas aeruginosa IMPDH assessed as Km for IMP at 10 uM using IMP as substrate in presence of 2 mM NAD+ and 0.2 mM MgATP (reference value: 483 +/- 65 microM)
[3] = target: T1, Inosine-5'-monophosphate dehydrogenase (Pseudomonas aeruginosa (strain ATCC 15692 / DSM 22644 / CIP 104116 / JCM14847 / LMG 12228 / 1C / PRS 101 / PAO1)); experiment: Competitive inhibition of Pseudomonas aeruginosa IMPDH using IMP as substrate and NAD+ in presence of varying ATP incubated for 70 secs
[4] = target: T2, Inosine-5'-monophosphate dehydrogenase (Pseudomonas aeruginosa (strain ATCC 15692 / DSM 22644 / CIP 104116 / JCM14847 / LMG 12228 / 1C / PRS 101 / PAO1), UniProt Q9HXM5); experiment: Inhibition of Pseudomonas aeruginosa IMPDH using IMP as substrate in the presence of NAD+ incubated for 70 secs
T2 sequence (Q9HXM5 whole entry): T1 sequence (whole entry)

[5] = target: T1, Inosine-5'-monophosphate dehydrogenase (Pseudomonas aeruginosa (strain ATCC 15692 / DSM 22644 / CIP 104116 / JCM14847 / LMG 12228 / 1C / PRS 101 / PAO1)); experiment: Inhibition of Pseudomonas aeruginosa IMPDH at 41.5 uM using IMP as substrate in the presence of NAD+ incubated for 70 secs relative to control
[6] = target: T1, Inosine-5'-monophosphate dehydrogenase (Pseudomonas aeruginosa (strain ATCC 15692 / DSM 22644 / CIP 104116 / JCM14847 / LMG 12228 / 1C / PRS 101 / PAO1)); experiment: Inhibition of Pseudomonas aeruginosa IMPDH at 47.1 uM using IMP as substrate in the presence of NAD+ incubated for 70 secs relative to control
[7] = target: T1, Inosine-5'-monophosphate dehydrogenase (Pseudomonas aeruginosa (strain ATCC 15692 / DSM 22644 / CIP 104116 / JCM14847 / LMG 12228 / 1C / PRS 101 / PAO1)); experiment: Inhibition of Pseudomonas aeruginosa IMPDH at 42.9 uM using IMP as substrate in the presence of NAD+ incubated for 70 secs relative to control
[8] = target: T1, Inosine-5'-monophosphate dehydrogenase (Pseudomonas aeruginosa (strain ATCC 15692 / DSM 22644 / CIP 104116 / JCM14847 / LMG 12228 / 1C / PRS 101 / PAO1)); experiment: Inhibition of Pseudomonas aeruginosa IMPDH at 57.4 uM using IMP as substrate in the presence of NAD+ incubated for 70 secs relative to control
[9] = target: T1, Inosine-5'-monophosphate dehydrogenase (Pseudomonas aeruginosa (strain ATCC 15692 / DSM 22644 / CIP 104116 / JCM14847 / LMG 12228 / 1C / PRS 101 / PAO1)); experiment: Inhibition of Pseudomonas aeruginosa IMPDH at 44.7 uM using IMP as substrate in the presence of NAD+ incubated for 70 secs relative to control
[10] = target: T1, Inosine-5'-monophosphate dehydrogenase (Pseudomonas aeruginosa (strain ATCC 15692 / DSM 22644 / CIP 104116 / JCM14847 / LMG 12228 / 1C / PRS 101 / PAO1)); experiment: Inhibition of Pseudomonas aeruginosa IMPDH assessed as Km for IMP at 20 uM using IMP as substrate in presence of 2 mM NAD+ and 0.2 mM MgATP (reference value: 483 +/- 65 microM)
[11] = target: T1, Inosine-5'-monophosphate dehydrogenase (Pseudomonas aeruginosa (strain ATCC 15692 / DSM 22644 / CIP 104116 / JCM14847 / LMG 12228 / 1C / PRS 101 / PAO1)); experiment: Inhibition of Pseudomonas aeruginosa IMPDH at 46.2 uM using IMP as substrate in the presence of NAD+ incubated for 70 secs relative to control
[12] = target: T1, Inosine-5'-monophosphate dehydrogenase (Pseudomonas aeruginosa (strain ATCC 15692 / DSM 22644 / CIP 104116 / JCM14847 / LMG 12228 / 1C / PRS 101 / PAO1)); experiment: Inhibition of Pseudomonas aeruginosa IMPDH at 40.7 uM using IMP as substrate in the presence of NAD+ incubated for 70 secs relative to control
[13] = target: T1, Inosine-5'-monophosphate dehydrogenase (Pseudomonas aeruginosa (strain ATCC 15692 / DSM 22644 / CIP 104116 / JCM14847 / LMG 12228 / 1C / PRS 101 / PAO1)); experiment: Inhibition of Pseudomonas aeruginosa IMPDH at 39.6 uM using IMP as substrate in the presence of NAD+ incubated for 70 secs relative to control
[14] = target: T1, Inosine-5'-monophosphate dehydrogenase (Pseudomonas aeruginosa (strain ATCC 15692 / DSM 22644 / CIP 104116 / JCM14847 / LMG 12228 / 1C / PRS 101 / PAO1)); experiment: Inhibition of Pseudomonas aeruginosa IMPDH at 35.1 uM using IMP as substrate in the presence of NAD+ incubated for 70 secs relative to control
[15] = target: T1, Inosine-5'-monophosphate dehydrogenase (Pseudomonas aeruginosa (strain ATCC 15692 / DSM 22644 / CIP 104116 / JCM14847 / LMG 12228 / 1C / PRS 101 / PAO1)); experiment: Competitive inhibition of Pseudomonas aeruginosa IMPDH using IMP as substrate at varying levels and NAD+ in presence of ATP incubated for 70 secs
[16] = target: T1, Inosine-5'-monophosphate dehydrogenase (Pseudomonas aeruginosa (strain ATCC 15692 / DSM 22644 / CIP 104116 / JCM14847 / LMG 12228 / 1C / PRS 101 / PAO1)); experiment: Inhibition of Pseudomonas aeruginosa IMPDH at 43.1 uM using IMP as substrate in the presence of NAD+ incubated for 70 secs relative to control

Row | Compound | inhibition [3] | IC50 ([4]; read-out: IC50) | further results
1 | N#CC1=C(N)Oc2[nH]c(=O)[nH]c(=O)c2C1c1ccc([N+](=O)[O-])cc1 (stereo not drawn) | Active | 7 µM | inhibition [1]: 87.8%; K0.5 [2]: 691 µM
2 | COc1ccc(Br)cc1-c1cc(C(=O)O)nc2[nH]nc(-c3ccc(C)cc3)c12 | Active | 11.7 µM | inhibition [5]: 79.9%
3 | CC(=O)Nc1ccc(-c2cc(C(=O)O)nc3[nH]nc(-c4ccc(C)cc4)c23)cc1 | Active | 23 µM | inhibition [6]: 78.3%
4 | CCc1oc2ccccc2c1C(=O)c1cc(Br)c(O)c(Br)c1 [BENZBROMARONE] | – | 55 µM | inhibition [7]: 73.3%
5 | N#CC1=C(N)Oc2[nH]c(=O)[nH]c(=O)c2C1c1ccc(Cl)cc1 (stereo not drawn) | Active | 4 µM | inhibition [8]: 89.3%
6 | CC(=O)Nc1ccc(-c2cc(C(=O)O)nc3[nH]nc(-c4ccc(Cl)cc4)c23)cc1 | Active | 19 µM | inhibition [9]: 73.2%
7 | CCOc1ccc(-c2cc(C(=O)O)nc3[nH]nc(-c4ccc(Cl)cc4)c23)cc1 | Active | 18.3 µM | K0.5 [10]: 616 µM; inhibition [11]: 73%
8 | O=C(O)c1cc(-c2cc(Br)ccc2F)c2c(-c3ccc(Cl)cc3)n[nH]c2n1 | Active | 7.4 µM | inhibition [12]: 71.6%
9 | COc1ccc(-c2cc(C(=O)O)nc3[nH]nc(-c4ccc(C)cc4)c23)cc1Br | Active | 11.7 µM | inhibition [13]: 83.1%
10 | Cc1cc2c(C(C)C)c(O)c(O)c(C=O)c2c(O)c1-c1c(C)cc2c(C(C)C)c(O)c(O)c(C=O)c2c1O [GOSSYPOL] | – | 0.9 µM | inhibition [14]: 100%; inhibition [15]: Active
11 | CN(Cc1ccccc1)Cc1nc2c(c(=O)n(C)c(=O)n2C)n1Cc1ccccc1F | – | – | inhibition [16]: 93.3%; IC50 [4]: Not Active
